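Exposure lasted 48 hours, with cells grown in 96-well plates and compounds tested at five concentrations. The concentration for 50% growth inhibition is given as GI50.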 Activity calls are given as the source filed them. No stated cut-off is given here; in the data, active = GI50 up to about 1.1 µM and inactive = higher.

Some test systems named below: RXF 393; OVCAR-3; HL-60; SF-295; K562; COLO 205; NCI-H23; SN12C; U-251; TK-10; ACHN; HCT-116; NCI-H522; OVCAR-8; A498; MDA-MB-435; A549; NCI/ADR-RES; SF-539; OVCAR-4.
What all share (experiment): DTP human tumour cell line panel, 48 h

By GI50 is commonly meant the concentration that inhibits growth by half. As to `COc1cc2c(cc1OC)C(SC)C(=O)N(Cc1cccc(OC)c1OC)CC2` (stereo not given), the GI50 with RXF 393 was 1.79 µM (inactive); in the test with OVCAR-3 it was 0.798 µM (active); in the test on HL-60 it was 0.411 µM (active); with SF-295 it was 0.63 µM (active); in the test on K562, 0.501 µM (active); in the test with COLO 205 it was 2.74 µM (inactive). Moreover, the GI50 in the test with NCI-H23 is 2.25 µM (inactive); in the test on SN12C, 5.61 µM (inactive); in the test with U-251 it was 2.02 µM (inactive); with TK-10, 5.62 µM (inactive); with ACHN, 5.04 µM (inactive); in the test with HCT-116, 1.92 µM (inactive). Besides, the concentration for 50% growth inhibition (GI50) with NCI-H522 is 0.64 µM (active); with OVCAR-8 it was 4.29 µM (inactive); in the test on A498, 2.03 µM (inactive); with MDA-MB-435 it was 0.353 µM (active); in the test on A549, 1.73 µM (inactive); in the test with NCI/ADR-RES, 2.73 µM (inactive). Further, the GI50 is 1.22 µM (inactive) in the test on SF-539 and 17.5 µM (inactive) in the test on OVCAR-4.

Consider `Nc1nc(Cl)c(N)c(NCC2(CO)CC(O)C2)n1` (stereo not given), for which the GI50 in the test with RXF 393, with OVCAR-3, in the test on HL-60, in the test with SF-295, in the test with K562 and with COLO 205 was > 100 µM (inactive) in each case. The GI50 in the test with NCI-H23, in the test on SN12C, in the test with U-251, with TK-10, in the test with ACHN and with HCT-116 was > 100 µM (inactive) throughout. The GI50 in the test on NCI-H522 is > 100 µM (inactive); in the test on OVCAR-8, > 100 µM (inactive); in the test with A498, 67.5 µM (inactive); in the test on MDA-MB-435, > 100 µM (inactive); in the test on A549, > 100 µM (inactive); in the test on NCI/ADR-RES, > 100 µM (inactive). In addition, the GI50 in the test with SF-539 and in the test with OVCAR-4 was > 100 µM (inactive) in each case.

`CSc1nnc(SC)nn1`: the GI50 in the test on RXF 393 was 16.7 µM (inactive); in the test on OVCAR-3 it was 16.2 µM (inactive); in the test with HL-60, 3.65 µM (inactive); in the test on SF-295, 18.1 µM (inactive); in the test on K562, 8.04 µM (inactive); in the test with COLO 205 it was 18.7 µM (inactive). The GI50 in the test on NCI-H23 is 20.8 µM (inactive); in the test with SN12C, 21.1 µM (inactive); with U-251 it was 20.6 µM (inactive); in the test on TK-10, 12.6 µM (inactive); with ACHN it was 16.8 µM (inactive); in the test on HCT-116, 11 µM (inactive). In addition, the GI50 in the test on NCI-H522 is 16.4 µM (inactive); with OVCAR-8, 18.6 µM (inactive); in the test on A498, > 100 µM (inactive); in the test on MDA-MB-435, 16.9 µM (inactive); with A549, 20.9 µM (inactive); in the test with NCI/ADR-RES, 16.8 µM (inactive). In addition, the GI50 with SF-539 is 18.2 µM (inactive); in the test with OVCAR-4 it was 18.5 µM (inactive).

As for `Cc1ccc2c(c1)CC1(Cc3cccc(C)c3C1=O)C2=O` (stereo not given), the GI50 in the test on RXF 393 was > 100 µM (inactive); in the test with OVCAR-3 it was > 100 µM (inactive); in the test with HL-60, 38.3 µM (inactive); in the test on SF-295, > 100 µM (inactive); in the test on K562, 39.4 µM (inactive); in the test with COLO 205, 85.3 µM (inactive). In addition, the GI50 was > 100 µM (inactive) in the test with NCI-H23; > 100 µM (inactive) with SN12C; > 100 µM (inactive) with U-251; > 100 µM (inactive) in the test on TK-10; > 100 µM (inactive) with ACHN; 64 µM (inactive) in the test on HCT-116. The GI50 in the test on NCI-H522 was 82.6 µM (inactive); with OVCAR-8, > 100 µM (inactive); with A498, > 100 µM (inactive); with MDA-MB-435, > 10 µM (inactive); in the test with A549 it was > 100 µM (inactive); in the test on NCI/ADR-RES, > 100 µM (inactive). Besides, the values for the GI50 in the test with SF-539 and in the test with OVCAR-4 were > 100 µM (inactive) and 55.8 µM (inactive), respectively.

With `O=c1c2ncn(C3CCCCO3)c2n(-c2ccccc2)c(=S)n1-c1ccccc1` (stereo not given), the GI50 with RXF 393 was 7.8 µM (inactive); with OVCAR-3, > 61.9 µM (inactive); in the test on HL-60 it was > 64.4 µM (inactive); in the test on SF-295, 16.1 µM (inactive); in the test with K562 it was > 68.7 µM (inactive); in the test on COLO 205, > 71.4 µM (inactive). Besides, the GI50 was 31.4 µM (inactive) with NCI-H23; 56.6 µM (inactive) with SN12C; 14.5 µM (inactive) in the test on U-251; 31.9 µM (inactive) in the test on TK-10; 45.1 µM (inactive) in the test with ACHN; 45.5 µM (inactive) in the test with HCT-116. For the same compound, the GI50 in the test on NCI-H522 is 39.6 µM (inactive); in the test with OVCAR-8, 19 µM (inactive); with A498, 30.7 µM (inactive); with MDA-MB-435, > 67.6 µM (inactive); in the test on A549, 78 µM (inactive); with NCI/ADR-RES, 30.1 µM (inactive). The GI50 was 10.8 µM (inactive) with SF-539 and 40.4 µM (inactive) in the test on OVCAR-4.

On to `COC(=O)c1ccccc1CC1Cc2ccc3c(c2C1)CCC3` (stereo not given), for which the GI50 in the test with RXF 393 was 19.1 µM (inactive); in the test with OVCAR-3 it was 31.3 µM (inactive); with HL-60, 13.9 µM (inactive); in the test with SF-295 it was 35.2 µM (inactive); in the test on K562 it was 29.6 µM (inactive); in the test with COLO 205, 17.4 µM (inactive). Besides, the GI50 in the test with NCI-H23 was 38.1 µM (inactive); with SN12C it was 39.6 µM (inactive); in the test on U-251 it was 28.6 µM (inactive); with TK-10 it was 21.3 µM (inactive); in the test with ACHN, 30.5 µM (inactive); with HCT-116, 23.3 µM (inactive). The GI50 is 17.7 µM (inactive) in the test on NCI-H522; 34.5 µM (inactive) with OVCAR-8; > 100 µM (inactive) in the test with A498; 22.9 µM (inactive) in the test on MDA-MB-435; 30.3 µM (inactive) in the test on A549; 21 µM (inactive) in the test on NCI/ADR-RES. Also, the GI50 in the test with SF-539 is 56.2 µM (inactive); with OVCAR-4, 24.2 µM (inactive).

Turning to `Cc1cc(C)n(C(=O)CSc2nc3ccc(I)cc3c(=O)n2Cc2ccccc2)n1`, the GI50 in the test on RXF 393 was 26.9 µM (inactive); with OVCAR-3 it was 58.6 µM (inactive); with HL-60, > 100 µM (inactive); with SF-295, 29.8 µM (inactive); with K562, > 100 µM (inactive); in the test on COLO 205, 59.7 µM (inactive). The GI50 in the test on NCI-H23 is 65.8 µM (inactive); with SN12C, 51.8 µM (inactive); in the test on U-251 it was 35.8 µM (inactive); in the test on TK-10, 41.6 µM (inactive); in the test on ACHN, 44.5 µM (inactive); with HCT-116 it was 57 µM (inactive). Besides, the GI50 with NCI-H522 is 20.1 µM (inactive); in the test with OVCAR-8, 24.9 µM (inactive); in the test on A498, 22.9 µM (inactive); in the test on MDA-MB-435, 73.6 µM (inactive); in the test with A549, 41 µM (inactive); with NCI/ADR-RES it was 36.6 µM (inactive). The GI50 in the test on SF-539 is 86.9 µM (inactive); in the test with OVCAR-4, 35.1 µM (inactive).

`CCCC(CC)c1cc(O)c(O)cc1C(CC)CCC` (stereo not given): the GI50 in the test on RXF 393, with OVCAR-3, in the test on HL-60, in the test on SF-295, with K562 and with COLO 205 was > 10 µM (inactive) throughout. The GI50 in the test on NCI-H23, in the test on SN12C, in the test on U-251, in the test on TK-10, in the test on ACHN and with HCT-116 was > 10 µM (inactive) in each case. In addition, the GI50 in the test on NCI-H522, in the test with OVCAR-8, in the test on A498, with MDA-MB-435, with A549 and in the test on NCI/ADR-RES was > 10 µM (inactive) each time. Also, the GI50 with SF-539 and with OVCAR-4 was > 10 µM (inactive) each time.

As to `CCOC(=O)c1cc(C2=CCNC2=O)c(-c2cc(C)no2)[nH]1`, the GI50 in the test on RXF 393 is 49.2 µM (inactive); in the test on OVCAR-3, 45.6 µM (inactive); in the test on HL-60, 22.3 µM (inactive); in the test with SF-295, 29.8 µM (inactive); in the test with K562, 34.8 µM (inactive); in the test on COLO 205, 54.8 µM (inactive). For the same compound, the GI50 with NCI-H23 is > 100 µM (inactive); in the test on SN12C it was > 100 µM (inactive); in the test on U-251, 62.5 µM (inactive); with TK-10, > 100 µM (inactive); in the test with ACHN it was 52.1 µM (inactive); with HCT-116, 31.1 µM (inactive). In addition, the GI50 in the test with NCI-H522 was 16.7 µM (inactive); with OVCAR-8 it was 45 µM (inactive); in the test with A498 it was > 100 µM (inactive); in the test with MDA-MB-435, > 100 µM (inactive); with A549, 37.4 µM (inactive); in the test with NCI/ADR-RES it was 30.5 µM (inactive). The GI50 was > 100 µM (inactive) in the test with SF-539 and 49.5 µM (inactive) in the test on OVCAR-4.

Take `CCC1CN2CCc3c([nH]c4ccccc34)[C@@](C(=O)OC)(c3cc4c(cc3OC)N(C)C3C(O)(C(=O)OC)C(C(=O)OC)C5(CC)C=CCN6CCC43C65)C[C@@H](C2)[C@@H]1C(C)(C)C` (stereo not given in full): the 50% growth inhibitory concentration (GI50) in the test on RXF 393 is 0.285 µM (active); with OVCAR-3, 0.316 µM (active); with HL-60, 0.305 µM (active); with SF-295, 0.226 µM (active); in the test with K562, 0.334 µM (active); in the test with COLO 205, 0.372 µM (active). For the same compound, the concentration for 50% growth inhibition (GI50) with NCI-H23 is 0.352 µM (active); in the test on SN12C, 0.607 µM (active); in the test with U-251, 0.417 µM (active); in the test on TK-10 it was 1.09 µM (active); in the test with ACHN, 0.6 µM (active); in the test with HCT-116 it was 0.312 µM (active). The GI50 was 0.292 µM (active) in the test with NCI-H522; 0.5 µM (active) in the test with OVCAR-8; 0.306 µM (active) in the test with A498; 0.196 µM (active) with MDA-MB-435; 0.649 µM (active) in the test on A549; 2.75 µM (inactive) in the test on NCI/ADR-RES. The GI50 is 0.381 µM (active) in the test on SF-539 and 3.15 µM (inactive) in the test with OVCAR-4.

These data come from ChEMBL document CHEMBL1201862, “PubChem BioAssay data set” (2004).
